Test results published in patent publication US20170151351A1, “Gd-ENCAPSULATED CARBON DOTS AND METHODS OF MAKING AND USING THEREOF” (University of Georgia Research Foundation, Inc., priority 2015, published 2017).

Columns and labels:
[1] = tested on: U87MG (human glioma) cells; assay: MTT cytotoxicity assay; assay type: cell-based; conditions: in the presence of 2.5 mM Ca(II)
Experimental: The cytotoxicity of Gd@C-dots was evaluated with U87MG (human glioma) cells using 3-(4, 5-dimethylthiazolyl-2)-2,5-diphenyltetrazolium bromide (MTT) assays. 2.5 mM Ca(II) was added into the incubation medium; while posing no direct toxicities to cells, such a high concentration of calcium can cause transmetallation to Gd complexes, leading to liberation of free Gd (Corot, C., et al., J. Magn. Reson. Imaging 1998, 8:695). […] The low toxicity was again attributed to the great resistance of Gd@C-dots against biodegradation and transmetallation.
c(RGDyK) affords strong binding affinity toward integrin αvβ3, a cancer biomarker that is seen overexpressed on neoplastic blood vessels and in many types of cancer cells. So the resulting conjugates (hereafter designated as RGD-Gd@C-dots) and unmodified Gd@C-dots were incubated with U87MG cells and imaged under a fluorescence microscope (ex/em: 360/460 nm). Specifically, U87MG cells were cultured in DMEM supplemented with 2 mM L-glutamine, 1.5 g/L sodium bicarbonate, 0.1 mM nonessential amino acids, 1.0 mM sodium pyruvate, and 10% fetal bovine serum at 37° C. in a humidified atmosphere with 5% CO2. 10^5 U87MG cells were seeded in 96-well plates (1×10^4 cells per well) 24 h prior to the experiments. […] The slides were mounted and imaged under an Olympus X71 fluorescence microscope.

[2] = at 7T, literature comparison; cited from earlier work
[3] = tested on: U87MG (human glioma) cells; conditions: no added Ca(II); cited from earlier work

Q: Which results are given for O=C([O-])CN(CCN(CC(=O)[O-])CC(=O)O)CCN(CC(=O)[O-])CC(=O)O.[Gd+3] [Gd-DTPA]?
A: IC50 (cytotoxicity) [1]: 33.1 µg/mL; r1 relaxivity [2]: 3.1 mM⁻¹ s⁻¹; toxicity under normal cell culture conditions [3]: no toxicities
